Measurements taken from patent US8999956B2, “N-[(het)arylalkyl)] pyrazole(thio)carboxamides and their heterosubstituted analogues” (Bayer Intellectual Property GmbH, priority 2010, dated 2015).

Experiment: log P by HPLC on reversed-phase column (EEC Directive 79/831 Annex V.A8)
Type: physicochemical
Experimental: In table 1, the log P values were determined in accordance with EEC Directive 79/831 Annex V.A8 by HPLC (High Performance Liquid Chromatography) on a reversed-phase column (C18), using the method described below: Temperature: 40° C.; […]

First: Cn1nc(C(F)F)c(C(=O)N(CCOc2ccc(Cl)cc2)C2CCCC2)c1F [Example 55]
Second: Cn1nc(C(F)F)c(C(=O)N(CCOc2c(Cl)cc(Cl)cc2Cl)C2CCCC2)c1F [Example 209]
The logP of the first is lower: 4.13 for the first, 5.08 for the second.

`C=CCC1CCCCC1N(C(=O)c1c(C(F)F)nn(C)c1Cl)C1CC1` (stereo not drawn) [Example 347] and `Cn1nc(C(F)F)c(C(=O)NC2CCCCC2C(C)(C)C)c1Cl` (stereo not drawn) [Example 348] are within 0.2 log units of each other in logP: 4.16 for the first, 4.15 for the second.

Going from `CN(CCC(=O)Nc1ccc(Cl)c(Cl)c1)C(=O)c1c(C(F)F)nn(C)c1Cl` [Example 233] to `Cn1nc(C(F)F)c(C(=O)NC(C)(C)CCc2ccc(Cl)c(Cl)c2)c1Cl` [Example 133], the logP rises from 2.86 to 4.44.

Going from `CC(CSCc1ccco1)N(C(=O)c1c(C(F)F)nn(C)c1F)C1CC1` (stereo not drawn) [Example 236] to `CN(CCCc1ccco1)C(=O)c1c(C(F)F)nn(C)c1F` [Example 101], the logP falls from 3.11 to 2.25.

Compared with `CC(CCc1ncc(C(F)(F)F)cc1Cl)N(C(=O)c1c(C(F)F)nn(C)c1Cl)C1CC1` (stereo not drawn) [Example 85], `Cc1ccc(C(C)CCN(C(=O)c2c(C(F)F)nn(C)c2Cl)C2CC2)o1` (stereo not drawn) [Example 108] is lower in logP: 4.11 for the first, 3.56 for the second.

`Cn1nc(C(F)F)c(C(=O)N(CC#Cc2cccs2)C2CC2)c1F` [Example 282] and `Cn1nc(C(F)F)c(C(=O)N(CCCc2cccs2)C2CC2)c1F` [Example 102] are within 0.2 log units of each other in logP: 3.00 for the first, 3.04 for the second.

Going from `CCC1(C)CC(NC(=O)c2c(C(F)F)nn(C)c2Cl)CC(C)(C)C1` (stereo not drawn) [Example 362] to `CCC1(C)CC(NC(=O)c2c(C(F)F)nn(C)c2F)CC(C)(C)C1` (stereo not drawn) [Example 363], the logP falls from 4.44 to 4.23.

Going from `CCC(CCc1sccc1Br)NC(=O)c1c(C(F)F)nn(C)c1Cl` (stereo not drawn) [Example 90] to `Cn1nc(C(F)F)c(C(=O)NC(CCc2ccc(Cl)cc2)C(C)(C)C)c1Cl` (stereo not drawn) [Example 61], the logP rises from 3.63 to 4.41.

Compared with `Cn1nc(C(F)F)c(C(=O)N(CCCC2CC=CO2)C2CC2)c1F` (stereo not drawn) [Example 98], `Cn1nc(C(F)F)c(C(=O)N(CCCc2cc3ccccc3o2)C2CC2)c1F` [Example 91] is higher in logP: 1.45 for the first, 3.52 for the second.

Going from `Cn1nc(C(F)F)c(C(=O)NCCOc2c(Cl)cc(Cl)cc2Cl)c1Cl` [Example 201] to `CC(COc1c(Cl)cc(Cl)cc1Cl)NC(=O)c1c(C(F)F)nn(C)c1Cl` (stereo not drawn) [Example 211], the logP rises from 3.80 to 4.20.

`CN(CC=Cc1ccccc1)C(=O)c1c(C(F)F)nn(C)c1Cl` [Example 261] and `CN(CC=Cc1ccccc1)C(=O)c1c(C(F)F)nn(C)c1F` [Example 262] are within 0.2 log units of each other in logP: 2.84 for the first, 2.73 for the second.

Compared with `CON(CCC(C)c1ccc(C)o1)C(=O)c1c(C(F)F)nn(C)c1Cl` (stereo not drawn) [Example 111], `Cc1ccc(C(C)CCN(C)C(=O)c2c(C(F)F)nn(C)c2F)o1` (stereo not drawn) [Example 109] is lower in logP: 3.29 for the first, 2.88 for the second.

Going from `CN(C(=O)c1c(C(F)F)nn(C)c1F)C1CCCCC1Cc1ccccc1` (stereo not drawn) [Example 253] to `CCN(CC=Cc1ccccc1)C(=O)c1c(C(F)F)nn(C)c1F` [Example 264], the logP falls from 3.72 to 3.02.

`Cn1nc(C(F)F)c(C(=O)NCC(=O)Nc2c(Cl)cc(Cl)cc2Cl)c1F` [Example 197] and `Cn1nc(C(F)F)c(C(=O)NCC(=O)Nc2c(Cl)cc(Cl)cc2Cl)c1Cl` [Example 198] are within 0.2 log units of each other in logP: 2.39 for the first, 2.56 for the second.

First: Cn1nc(C(F)F)c(C(=O)NC2(C(=O)Nc3ccccc3)CCCC2)c1Cl [Example 4]
Second: CC#CC1(NC(=O)c2c(C(F)F)nn(C)c2Cl)CCCCC1 [Example 383]
The logP of the first is lower: 2.62 for the first, 3.11 for the second.

First: Cn1nc(C(F)F)c(C(=O)NCCOc2cc(Cl)cc(Cl)c2)c1Cl [Example 118]
Second: Cn1nc(C(F)F)c(C(=O)NCCOc2ccc(Cl)cc2)c1Cl [Example 49]
The logP of the first is higher: 3.55 for the first, 2.96 for the second.

Going from `Cn1nc(C(F)F)c(C(=O)NCCCc2cc3ccccc3s2)c1F` [Example 95] to `Cn1nc(C(F)F)c(C(=O)N(CCCc2cc3ccccc3s2)C2CC2)c1F` [Example 94], the logP rises from 3.17 to 3.79.

Compared with `CN(CCN(C)C(=O)c1c(C(F)F)nn(C)c1Cl)C(=O)c1ccccc1` [Example 231], `CN(CC#Cc1ccccc1)C(=O)c1c(C(F)F)nn(C)c1Cl` [Example 270] is higher in logP: 1.76 for the first, 2.92 for the second.

`Cn1nc(C(F)F)c(C(=O)NC(COc2ccc3ccccc3c2)C2CC2)c1Cl` (racemic) [Example 138] and `CN(C(=O)c1c(C(F)F)nn(C)c1Cl)C(COc1ccc2ccccc2c1)C1CC1` (racemic) [Example 140] are within 0.2 log units of each other in logP: 3.94 for the first, 3.96 for the second.

First: Cn1nc(C(F)F)c(C(=O)N(CCOc2c(Cl)cc(Cl)cc2Cl)C2CCCC2)c1Cl [Example 206]
Second: Cn1nc(C(F)F)c(C(=O)N(CCOc2c(Cl)cc(Cl)cc2Cl)C2COC2)c1Cl [Example 207]
The logP of the first is higher: 5.27 for the first, 3.55 for the second.

First: Cn1nc(C(F)F)c(C(=O)NCC#Cc2cc3ccccc3s2)c1F [Example 277]
Second: CN(CC#Cc1cc2ccccc2s1)C(=O)c1c(C(F)F)nn(C)c1F [Example 278]
The logP of the first is lower: 3.19 for the first, 3.39 for the second.

Compared with `Cn1nc(C(F)F)c(C(=O)NC2CCCC2Sc2ncccn2)c1Cl` (stereo not drawn) [Example 257], `Cc1cccc(C)c1OCCNC(=O)c1c(C(F)F)nn(C)c1Cl` [Example 152] is higher in logP: 2.26 for the first, 3.13 for the second.

First: CCCN(CCOc1c(Cl)cc(Cl)cc1Cl)C(=O)c1c(C(F)F)nn(C)c1F [Example 204]
Second: CCCN(CC(=O)Nc1c(Cl)cc(Cl)cc1Cl)C(=O)c1c(C(F)F)nn(C)c1F [Example 200]
The logP of the first is higher: 4.37 for the first, 2.96 for the second.

Compared with `Cn1nc(C(F)F)c(C(=O)NCCOc2ccc(-c3ccccc3)cc2)c1F` [Example 27], `Cn1nc(C(F)F)c(C(=O)NCCCC2Cc3ccccc3O2)c1F` (stereo not drawn) [Example 97] is lower in logP: 3.44 for the first, 2.69 for the second.

Going from `Cn1nc(C(F)F)c(C(=O)NC(C)(C)C#Cc2ccc(C#N)cc2)c1F` [Example 284] to `Cn1nc(C(F)F)c(C(=O)NC(CCc2ccc(Cl)cc2)C(C)(C)C)c1F` (stereo not drawn) [Example 60], the logP rises from 2.82 to 4.24.

First: CCCCC1CCCC1NC(=S)c1c(C(F)F)nn(C)c1F (stereo not drawn) [Example 308]
Second: CCCCC1CCCCC1NC(=S)c1c(C(F)F)nn(C)c1F (stereo not drawn) [Example 332]
The logP of the first is lower: 4.39 for the first, 4.86 for the second.

`CN(CCCc1cc2ccccc2o1)C(=O)c1c(C(F)F)nn(C)c1F` [Example 93] and `COCCN(CC=Cc1ccccc1)C(=O)c1c(C(F)F)nn(C)c1F` [Example 266] are within 0.2 log units of each other in logP: 3.00 for the first, 2.86 for the second.

Going from `Cn1nc(C(F)F)c(C(=O)NCCS(=O)(=O)c2ccc(Cl)cc2)c1F` [Example 58] to `Cn1nc(C(F)F)c(C(=O)NCCOc2c(F)cccc2F)c1Cl` [Example 160], the logP rises from 2.10 to 2.64.

Compared with `CCN(CC=Cc1ccccc1)C(=O)c1c(C(F)F)nn(C)c1Cl` [Example 263], `CC(COc1ccccc1)N(C)C(=O)c1c(C(F)F)nn(C)c1Cl` (stereo not drawn) [Example 15] is lower in logP: 3.17 for the first, 2.78 for the second.

`CCN(C(=O)c1c(C(F)F)nn(C)c1Cl)C(C)COc1ccc(C)cc1` (stereo not drawn) [Example 39] and `CCCN(CCOc1ccc(C(=O)OCC)cc1)C(=O)c1c(C(F)F)nn(C)c1Cl` [Example 72] are within 0.2 log units of each other in logP: 3.48 for the first, 3.44 for the second.

Going from `Cn1nc(C(F)F)c(C(=O)NCC#Cc2ccco2)c1F` [Example 280] to `CC(COc1c(Cl)cc(Cl)cc1Cl)NC(=O)c1c(C(F)F)nn(C)c1F` (stereo not drawn) [Example 212], the logP rises from 2.14 to 3.92.

Compound `CCCN(CCCOc1c(C)cc(C)cc1C)C(=O)c1c(C(F)F)nn(C)c1Cl` [Example 234] has a logP of 4.39.
